Patent publication US20220119354A1, “DIAMINO-SUBSTITUTED PYRIDINES AND PYRIMIDINES AS HERBICIDES” (FMC Corporation, priority 2019, published 2022)

Experiments:
Format in all cases: in vivo
[1] = test system: blackgrass (Alopecurus myosuroides); assay: Test A postemergence, blackgrass; conditions: 0 to 100 scale, 0 no effect, 100 complete control
Outline: (§1)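 Greenhouse evaluation: treated and untreated pots were held about 10 d, then injury was rated visually from 0 (no effect) to 100 (complete control). Application was preemergence to soil or postemergence to seedlings 2–10 cm tall, using a non-phytotoxic solvent formulation with surfactant.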

[2] = test system: ragweed (common ragweed, Ambrosia elatior); assay: Test A postemergence, ragweed; conditions: 0 to 100 scale, 0 no effect, 100 complete control
Outline: as §1

[3] = test system: barnyardgrass (Echinochloa crus-galli); assay: Test A preemergence, barnyardgrass; conditions: 0 to 100 scale, 0 is no effect, 100 is complete control
Outline: as §1

[4] = test system: pigweed (Amaranthus retroflexus); assay: Test A postemergence, pigweed; conditions: 0 to 100 scale, 0 no effect, 100 complete control
Outline: as §1

[5] = test system: ryegrass, Italian (Lolium multiflorum); assay: Test A preemergence, Italian ryegrass; conditions: 0 to 100 scale, 0 is no effect, 100 is complete control
Outline: as §1

[6] = test system: barnyardgrass (Echinochloa crus-galli); assay: Test B flooded paddy test, barnyardgrass; conditions: Flood, 250 g ai/ha, applied to paddy water, 2-leaf stage, visual evaluation after 13 to 15 d
Outline: (§2)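 Growth to two leaves preceded treatment. Flooding to 3 cm above soil surface, then water-applied compound; depth kept constant. Scored visually relative to controls after 13–15 d greenhouse; 100 means full control.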

rice (Oryza sativa) = assay: Test B flooded paddy test, rice; conditions: Flood, 250 g ai/ha, applied to paddy water, 2-leaf stage, visual evaluation after 13 to 15 d
Outline: as §2

[7] = test system: ducksalad (Heteranthera limosa); assay: Test B flooded paddy test, ducksalad; conditions: Flood, 250 g ai/ha, applied to paddy water, 2-leaf stage, visual evaluation after 13 to 15 d
Outline: as §2

[8] = test system: ryegrass, Italian (Lolium multiflorum); assay: Test A postemergence, Italian ryegrass; conditions: 0 to 100 scale, 0 no effect, 100 complete control
Outline: as §1

corn (Zea mays) = assay: Test A postemergence, corn; conditions: 0 to 100 scale, 0 no effect, 100 complete control
Outline: as §1

[9] = test system: foxtail, giant (Setaria faberii); assay: Test A preemergence, giant foxtail; conditions: 0 to 100 scale, 0 is no effect, 100 is complete control
Outline: as §1

[10] = test system: wheat (Triticum aestivum); assay: Test A postemergence, wheat; conditions: 0 to 100 scale, 0 no effect, 100 complete control
Outline: as §1

[11] = test system: pigweed (Amaranthus retroflexus); assay: Test A preemergence, pigweed; conditions: 0 to 100 scale, 0 is no effect, 100 is complete control
Outline: as §1

[12] = test system: galium (catchweed bedstraw, Galium aparine); assay: Test A postemergence, galium; conditions: 0 to 100 scale, 0 no effect, 100 complete control
Outline: as §1

[13] = test system: barnyardgrass (Echinochloa crus-galli); assay: Test A postemergence, barnyardgrass; conditions: 0 to 100 scale, 0 no effect, 100 complete control
Outline: as §1

[14] = test system: foxtail, giant (Setaria faberii); assay: Test A postemergence, giant foxtail; conditions: 0 to 100 scale, 0 no effect, 100 complete control
Outline: as §1

[15] = test system: ragweed (common ragweed, Ambrosia elatior); assay: Test A preemergence, ragweed; conditions: 0 to 100 scale, 0 is no effect, 100 is complete control
Outline: as §1

kochia (Kochia scoparia) [16] = assay: Test A preemergence, kochia; conditions: 0 to 100 scale, 0 is no effect, 100 is complete control
Outline: as §1

[17] = test system: sedge, umbrella (small-flower umbrella sedge, Cyperus difformis); assay: Test B flooded paddy test, umbrella sedge; conditions: Flood, 250 g ai/ha, applied to paddy water, 2-leaf stage, visual evaluation after 13 to 15 d
Outline: as §2

kochia (Kochia scoparia) [18] = assay: Test A postemergence, kochia; conditions: 0 to 100 scale, 0 no effect, 100 complete control
Outline: as §1

Row | Structure (SMILES) | Plant response rating, Blackgrass ([1]; 125 g ai/ha) | Plant response rating, Blackgrass ([1]; 500 g ai/ha) | Plant response rating, Ragweed ([2]; 125 g ai/ha) | Plant response rating, Ragweed ([2]; 500 g ai/ha) | Barnyardgrass plant response rating ([3]; 125 g ai/ha) | Barnyardgrass plant response rating ([3]; 500 g ai/ha) | Plant response rating, Pigweed ([4]; 125 g ai/ha) | Plant response rating, Pigweed ([4]; 500 g ai/ha) | Ryegrass, Italian plant response rating ([5]; 125 g ai/ha) | Ryegrass, Italian plant response rating ([5]; 500 g ai/ha) | Plant response rating, Barnyardgrass (0 to 100 scale, 0 is no effect, 100 is complete control) [6] | Plant response rating, Rice (0 to 100 scale, 0 is no effect, 100 is complete control) (rice (Oryza sativa)) | Plant response rating, Ducksalad (0 to 100 scale, 0 is no effect, 100 is complete control) [7] | Plant response rating, Ryegrass, Italian ([8]; 125 g ai/ha) | Plant response rating, Ryegrass, Italian ([8]; 500 g ai/ha) | Plant response rating, Corn (corn (Zea mays); 125 g ai/ha) | Plant response rating, Corn (corn (Zea mays); 500 g ai/ha) | Foxtail, Giant plant response rating ([9]; 125 g ai/ha) | Foxtail, Giant plant response rating ([9]; 500 g ai/ha) | Plant response rating, Wheat ([10]; 125 g ai/ha) | also measured
1 | Nc1nc(N[C@H](c2coc3ccccc23)C2CC2)ncc1C(F)(F)F [Compound 78] | 0 | 0 | 0 | 0 | 0 | 0 | 60 | 70 | 20 | 50 | 0 | 0 | 0 | 0 | 0 | 0 | 0 | 0 | 0 | 0 | Plant response rating, Wheat ([10]; 500 g ai/ha): 0; Pigweed plant response rating ([11]; 125 g ai/ha): 0; Pigweed plant response rating ([11]; 500 g ai/ha): 20; Plant response rating, Galium ([12]; 125 g ai/ha): 0; Plant response rating, Galium ([12]; 500 g ai/ha): 10; Plant response rating, Barnyardgrass ([13]; 125 g ai/ha): 0; Plant response rating, Barnyardgrass ([13]; 500 g ai/ha): 0; Plant response rating, Foxtail, Giant ([14]; 125 g ai/ha): 0; Plant response rating, Foxtail, Giant ([14]; 500 g ai/ha): 0; Ragweed plant response rating ([15]; 125 g ai/ha): 0; Ragweed plant response rating ([15]; 500 g ai/ha): 20; Kochia plant response rating (kochia (Kochia scoparia) [16]; 125 g ai/ha): 80; Kochia plant response rating (kochia (Kochia scoparia) [16]; 500 g ai/ha): 90; Plant response rating, Sedge, Umbrella (0 to 100 scale, 0 is no effect, 100 is complete control) [17]: 0; Plant response rating, Kochia (kochia (Kochia scoparia) [18]; 125 g ai/ha): 0; Plant response rating, Kochia (kochia (Kochia scoparia) [18]; 500 g ai/ha): 20
2 | C[C@H](Nc1ncc(C(F)(F)F)c(N)n1)c1cc2c(F)cccc2o1 [Compound 74] | 0 | 0 | 20 | 30 | 0 | 0 | 60 | 90 | 0 | 0 | 0 | 0 | 0 | 0 | 0 | 0 | 0 | 0 | 0 | 0 | Plant response rating, Wheat ([10]; 500 g ai/ha): 0; Pigweed plant response rating ([11]; 125 g ai/ha): 0; Pigweed plant response rating ([11]; 500 g ai/ha): 10; Plant response rating, Galium ([12]; 125 g ai/ha): 0; Plant response rating, Galium ([12]; 500 g ai/ha): 50; Plant response rating, Barnyardgrass ([13]; 125 g ai/ha): 0; Plant response rating, Barnyardgrass ([13]; 500 g ai/ha): 0; Plant response rating, Foxtail, Giant ([14]; 125 g ai/ha): 0; Plant response rating, Foxtail, Giant ([14]; 500 g ai/ha): 0; Ragweed plant response rating ([15]; 125 g ai/ha): 0; Ragweed plant response rating ([15]; 500 g ai/ha): 40; Kochia plant response rating (kochia (Kochia scoparia) [16]; 125 g ai/ha): 0; Kochia plant response rating (kochia (Kochia scoparia) [16]; 500 g ai/ha): 0; Plant response rating, Sedge, Umbrella (0 to 100 scale, 0 is no effect, 100 is complete control) [17]: 0; Plant response rating, Kochia (kochia (Kochia scoparia) [18]; 125 g ai/ha): 20; Plant response rating, Kochia (kochia (Kochia scoparia) [18]; 500 g ai/ha): 60
